A short description of series [1]: Drug metabolism assessed as (5R,7S)-7-(4-fluorophenyl)-2-(3-methoxy-4-(3-methyl-1H-1,2,4-triazol-1-yl)phenylamino)-4-(methylamino)-6,7-dihydro-5H-cyclopenta[d]pyrimidin-5-ol metabolite formation by LC/MS analysis.
Series [2] is described as follows: Drug metabolism assessed as (S)-7-(4-fluorophenyl)-2-(3-methoxy-4-(3-methyl-1H-1,2,4-triazol-1-yl)phenylamino)-4-(methylamino)-6,7-dihydro-5H-cyclopenta[d]pyrimidin-5-one metabolite formation by LC/MS analysis.
The nature of series [3]: Drug metabolism assessed as nitrile adduct formation in presence of KCN.
Series [4] is described as follows: Metabolic stability in human liver microsomes assessed as parent compound remaining incubated for 30 mins. In kind it is ADME, Microsome. The conditions noted are these: read-out: Stabilty.
Series [5] can be described thus: Drug metabolism assessed as iminoquinone A formation.
Series [6] is described as follows: Glutathione reactivity in liver microsomes assessed as GSH-adduct formation. In kind it is ADME. For orientation: Microsomes from liver hold many membrane-bound enzymes, among them those of drug oxidation.
Series [7] is described as follows: Metabolic stability in rat liver microsomes assessed as parent compound remaining incubated for 30 mins. The format is ADME, Microsome. The note with it: read-out: Stabilty.
The target in another series is Gamma-secretase. Put plainly: Modulation of gamma secretase (unknown origin) assessed as inhibition of amyloid beta (1 to 42 residues) production. The format is protein-complex assay, Homo sapiens.
Another series deals with Cytochrome P450 3A4 (Homo sapiens, UniProt P08684). Put plainly: Time-dependent inhibition of CYP3A4 in human liver microsomes assessed as inhibition constant by Kitz-Wilson plot analysis. The format is ADME.

The structures appear in SMILES notation.

Results on nine compounds are retold here after ChEMBL document CHEMBL4699483, “Synthesis of functionalized derivatives of the gamma-secretase modulator BMS-932481 and identification of its major metabolite” (Bioorg Med Chem Lett, 2020).

Broadly, the IC50 is the point on the concentration scale where inhibition reaches its midpoint.

Cytochrome P450 3A4, sequence (P08684 whole entry): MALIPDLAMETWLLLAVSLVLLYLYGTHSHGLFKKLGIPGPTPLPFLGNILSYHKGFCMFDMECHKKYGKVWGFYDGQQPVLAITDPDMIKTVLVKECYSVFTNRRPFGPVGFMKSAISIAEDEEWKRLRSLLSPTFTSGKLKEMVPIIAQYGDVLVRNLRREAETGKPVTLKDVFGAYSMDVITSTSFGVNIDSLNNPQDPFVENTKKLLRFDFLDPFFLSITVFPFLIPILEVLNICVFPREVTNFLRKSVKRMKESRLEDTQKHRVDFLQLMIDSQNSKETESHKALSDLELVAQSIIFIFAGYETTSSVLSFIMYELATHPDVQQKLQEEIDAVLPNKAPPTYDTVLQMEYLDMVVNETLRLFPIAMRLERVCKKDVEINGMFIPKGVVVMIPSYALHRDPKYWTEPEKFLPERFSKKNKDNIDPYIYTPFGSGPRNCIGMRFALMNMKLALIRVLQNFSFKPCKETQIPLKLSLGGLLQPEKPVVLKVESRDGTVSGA

As to `CNc1nc(Nc2ccc(-n3cnc(C)n3)c(OC)c2)nc2c1CC[C@H]2c1ccc(F)cc1`, the Drug metabolism result in series [1] is given as “Metabolite detected”; in [2] it was “Metabolite detected”; in series [3] it was “Metabolite detected”; in series [5] it was “Metabolite detected”; in series [6], “Not Active”. Besides, the results for the remaining at 0.5 h in [4] and in [7] were 94% and 89%, respectively.
In the case of `CNc1nc(Nc2ccc(-n3cnc(C)n3)c(OC)c2)nc2c1/C(=N/O)C[C@H]2c1ccc(F)cc1`, the half-maximal inhibitory concentration (IC50) on Gamma-secretase is 0.005 µM.
Still for that read-out and setting: the result for `CNc1nc(Nc2ccc(-n3cnc(C)n3)c(OC)c2)nc2c1[C@H](O)C[C@H]2c1ccc(F)cc1` reads 0.017 µM; that for `CNc1nc(Nc2ccc(-n3cnc(C)n3)c(OC)c2)nc2c1CC[C@]2(O)c1ccc(F)cc1`, 0.096 µM.
For the compound `CNc1nc(Nc2ccc(-n3cnc(C)n3)c(OC)c2)nc2c1C(C)(O)CC2c1ccc(F)cc1` (racemic), at Gamma-secretase, the IC50 is 0.06 µM.
Same read-out and setting: the result for `CNc1nc(Nc2ccc(-n3cnc(C)n3)c(OC)c2)nc2c1/C(=N/O)CC2c1ccc(F)cc1` (racemic) reads 0.01 µM; that for `CNc1nc(Nc2ccc(-n3cnc(C)n3)c(OC)c2)nc2c1CC[C@@]2(O)c1ccc(F)cc1`, 2.3 µM; that for `CNc1nc(Nc2ccc(-n3cnc(C)n3)c(OC)c2)nc2c1C(=O)C[C@H]2c1ccc(F)cc1`, 0.014 µM.
`CNc1nc(Nc2ccc(-n3cnc(C)n3)c(OC)c2)nc2c1CC[C@@H]2c1ccc(F)cc1`: the Drug metabolism entry was “Metabolite detected” in [1]; “Metabolite detected” in series [2]; “Metabolite detected” in series [3]; “Metabolite detected” in series [5]; “Not Active” in series [6]. Further, the remaining at 0.5 h in series [4] worked out at 94%; in series [7] it was 89%. The Ki at Cytochrome P450 3A4 was determined as 82.5 µM.
